Broadly, the Tmax is the time from dosing to the highest level. One may read the Cmax as the peak of the concentration-time curve.

Like-named read-outs stand apart in the source and are kept apart here.

Data on one compound can be found in US9045484B2, “Inhibitors of the BMP signaling pathway” (The Brigham and Women's Hospital, Inc., priority 2008, dated 2015).

For one data set, the system named is KDR-mediated signaling. Put plainly: Antagonism of KDR-mediated signaling (not shown). The following applies: compound 13 versus dorsomorphin.
Data set [1] has as its system turpentine-treated C57BL/6 mice. Put plainly: Established turpentine-induced anemia of inflammation (rescue). It is filed as in vivo. How it is done: After the establishment of anemia, treatment with either vehicle or compound 13 (3 mg/kg/d IP) is begun concurrently with an additional 3 weeks of weekly turpentine injections, to assess the potential for rescuing established turpentine-induced anemia of inflammation. […] Shaded areas indicate normative values in C57BL/6 mice for each parameter.

Data set [2] concerns turpentine-challenged C57BL/6 mice. Put plainly: Turpentine-induced hypoferrinemia, 24 h after one turpentine injection. Format: in vivo. The procedure: Mice received a subcutaneous injection of turpentine, and 24 h later, serum was obtained for measurement of iron concentrations. Compound 13 (3 mg/kg) or vehicle was administered ip concurrently with turpentine and 12 hours later.

For data set [3], the system named is IL6-induced hepcidin expression in HepG2 cells. The data set is described as follows: IL6-induced hepcidin expression in HepG2 hepatoma cells. Format: cell-based, human. Conditions: pretreatment 5-625 nM for 30 min, IL6 50 ng/mL 1.5 h; FIG. 7. The procedure:
HepG2 cells pretreated with compound 13 (5-625 nM) or vehicle for 30 min. were incubated with IL6 (50 ng/mL) for 1.5 h. Cells were harvested, and hepcidin mRNA and 18S rRNA levels were measured by quantitative RT-PCR. Changes in gene expression were normalized to 18S ribosomal RNA levels using the relative cycle threshold method.

Data set [4] relates to turpentine-challenged C57BL/6 mice. The following applies: 3 mg/kg ip every 12 h, weekly turpentine for 3 weeks. The procedure: To model the anemia of inflammation, C57BL/6 mice were studied in which chronic inflammation was induced by weekly subcutaneous injections of turpentine.
Mice received a subcutaneous injection of 100 μL turpentine weekly for 3 weeks. Compound 13 or vehicle (3 mg/kg) was administered ip beginning with the first turpentine injection and every 12 h thereafter. Vehicle treated mice without turpentine injection were studied as controls. One week after the final turpentine dose, blood was drawn for Hb levels, mean corpuscular volume (MCV), and absolute neutrophil counts.

Data set [5] can be described thus: Plasma pharmacokinetics after single bolus intraperitoneal administration. Format: in vivo, C57B16 mice. The following applies: IP 3 mg/kg. The procedure:
The pharmacokinetics of 13.HCl was evaluated after a single bolus intraperitoneal administration (3 mg/kg) in male and female C57B16 mice on a commercial rodent diet and water ad libitum prior to the study. Compound plasma levels were determined by LC-MS/MS and the pharmacokinetic parameters were determined using WinNonlin software (Pharsight Co., Mountain View, Calif.). Dosing solutions (0.6 mg/mL) were prepared in a vehicle comprising 2% hydropropyl-β-cyclodextrin in phosphate-buffered saline (PBS). Each time point (pre-dose, 5, 10, 15, 30, 60, 120, 240, 480, 1440 min post-dose) was dosed as N=3/sex. Each blood sample was collected via cardiac puncture after euthanasia with CO2 and placed in chilled tubes containing sodium heparin. Samples were centrifuged at 4° C. at 13,000 rpm for 5 min followed by extracted with acetonitrile and then analyzed.
The pharmacokinetics of 44.HCl and 37.HCl were evaluated after a single bolus intraperitoneal administration (3 mg/kg) in male C57B16 mice on a commercial rodent diet and water ad libitum prior to the study. Compound plasma levels were determined by LC-MS/MS and the pharmacokinetic parameters were determined using WinNonlin software (Pharsight Co., Mountain View, Calif.). Dosing solutions (0.6 mg/mL) were prepared in a vehicle comprising 2% hydropropyl-β-cyclodextrin in phosphate-buffered saline (PBS). Each time point (pre-dose, 5, 10, 15, 30, 60, 120, 240, 480, 1440 min post-dose) was dosed as
N=3/sex. Each blood sample was collected via cardiac puncture after euthanasia with CO2 and placed in chilled tubes containing sodium heparin. Samples were centrifuged at 4° C. at 13,000 rpm for 5 min followed by extracted with acetonitrile and then analyzed.

Data set [6] in a line: Microsomal stability in pooled mouse liver microsomes. Format: in vitro ADME. Conditions: 0.5 mg/mL microsome protein, 1 mM NADPH. How it is done: Test compound (3 μM final concentration) along with 0.5 mg/mL microsome protein and 1 mM NADPH was incubated for 0, 5, 15, 30 and 60 min. Incubation of test compound and microsomes in the absence of NADPH served as a negative control. The samples were quenched with methanol and centrifuged for 20 min at 2500 rpm to precipitate proteins. Sample supernatants were analyzed (N=3) by LC/MS. The ln peak area ratio (compound peak area/internal standard peak area) was plotted against time and the slope of the line determined to give the elimination rate constant [k=(−1)(slope)]. The half life (t1/2 in minutes) and the in vitro intrinsic clearance (CLint in μL/min/mg protein) values were calculated according to the following equations, where V=incubation volume in μL/mg protein: […]
Background: Liver microsomes are a subcellular fraction often used to study metabolism.

Consider `c1ccc2c(-c3cnn4cc(-c5ccc(N6CCNCC6)cc5)cnc34)ccnc2c1` [Compound 13, 4-[6-(4-piperazin-1-ylphenyl)pyrazolo[1,5-a]pyrimidin-3-yl]quinoline], for which the “antagonism of KDR-mediated signaling” value with KDR-mediated signaling is given as “five- to six-fold reduction”. In data set [1] (3 mg/kg/d IP for final 3 weeks of 6 weeks turpentine, FIG. 17), the blood hemoglobin entry is listed as “significant improvement”. For the same compound, the hematocrit result in data set [1] (3 mg/kg/d IP for final 3 weeks of 6 weeks turpentine, FIG. 18) is recorded as “restoration of hematocrit to values within the normal range”. Moreover, the “mean corpuscular volume (MCV)” value in data set [1] (3 mg/kg/d IP for final 3 weeks of 6 weeks turpentine, FIG. 19) is “restores MCV to low-normal levels”; in data set [4] (FIG. 11), “prevented the decline in Hb levels and MCV”. For the same compound, in data set [1] (FIG. 21), the neutrophilia entry is listed as “induced neutrophilia regardless of treatment with vehicle or compound 13”. In data set [1] (cotreatment for final 3 weeks of 6 weeks turpentine, FIG. 20), the reticulocyte counts entry is “restores high-normal reticulocyte counts”. Further, the “turpentine-induced reduction in serum iron levels” value in data set [2] (3 mg/kg ip with turpentine and 12 hours later, FIG. 8) is on record as “prevented turpentine-induced reduction in serum iron levels”. In addition, the “hepatic hepcidin mRNA levels after turpentine” value in data set [2] (two doses 3 mg/kg IP every 12 hours, FIG. 9) was “prevented elevation of hepatic hepcidin mRNA levels”. The “IL6-mediated increase in hepcidin mRNA levels” value in data set [3] was “abrogated the IL6-mediated increase in hepcidin mRNA levels in a dose-dependent fashion”. Besides, the “hemoglobin (Hb) levels” value in data set [4] (FIG. 10) was “prevented the decline in Hb levels and MCV”. For the same compound, the absolute neutrophil counts result in data set [4] (FIG. 12) was “did not affect the increase in absolute neutrophil counts”. The Tmax in data set [5] (C57B16, mouse, female mice, read-out: tmax) was below 5 min; in data set [5] (C57B16, mouse, male mice, read-out: tmax) it was below 5 min; in data set [5] (female mice), below 5 min; in data set [5] (male mice) it was below 5 min. In addition, the results for the “AUC∞” value in data set [5] (female mice) and in data set [5] (male mice) were 1030 ng·h/mL and 994 ng·h/mL, respectively. In addition, the Cmax in data set [5] (female mice) was found to be 1290 nM; in data set [5] (male mice), 1540 nM. Besides, the t1/2 in data set [5] (female mice) and in data set [5] (male mice) was 96 min in each case. In addition, in data set [6] (read-out: half-life (t1/2) in mouse liver microsomes), the half-life at 3 μM is 82 min. In addition, the microsomal CLint at 3 μM in data set [6] (read-out: intrinsic clearance (CLint) in mouse liver microsomes) amounted to 16.9 ± 5.6 µL/min/mg.
